Data: patent publication US20250129048A1, “MELANOCORTIN 4 RECEPTOR ANTAGONISTS AND USES THEREOF” (Pfizer Inc., priority 2021, published 2025)

Tests used:
hMC4R = hMC4R (Homo sapiens (Human), UniProt P32245); experiment: In vitro binding affinity assay using hMC4R (radioligand competition binding, CHO cell membranes); conditions: competition with [125I]-(Nle4, D-Phe7)-α-MSH 0.5 nM; Ki from IC50 by Cheng-Prusoff; read-out: Ki (nM) geometric mean
Experimental: The binding affinity of test compounds at the α-melanocyte-stimulating hormone receptor (hMC4R) was assessed using a radioligand competition binding assay. Recombinant Chinese hamster ovaries (CHO) cells stably expressing hMC4R (PerkinElmer #ES-191-C) were used for competitive binding. hMC4R membranes were grown in Dulbecco's Modified Essential Medium and Ham's F-12 Medium (DMEM/F12), 10% heat inactivated fetal bovine serum (FBS), 0.4 mg/mL Geneticin and 2 mM L-glutamine. Cell membranes were bulked and frozen until the assay was performed.
Compounds were solubilized in 100% dimethyl sulfoxide (DMSO) to a concentration of 30 mM. A 10-point intermediate dilution series using half log dilutions was created in 100% DMSO with a top concentration of 0.03 mM. The serially diluted compounds were spotted as 1 μL/well, in 96-well Costar 3363 plates. The final compound range in the assay was 300 nM to 0.01 nM with a final DMSO concentration of 1%. Control wells, containing 1 μL of 2 mM ([…]) alpha-melanocyte stimulating hormone (α-MSH-Tocris #2584) was added to the non-specific binding wells and 1 μL 100% DMSO for the total binding control wells. This was followed by the addition of 80 μL of assay buffer [25 mM HEPES, 5 mM MgCl2, 2.5 mM CaCl2, 150 mM NaCl, Complete EDTA-free Protease Inhibitor Tablet (Thermo Scientific #11873580001) and 0.25% BSA]. […] The exact concentration of radioligand used for each experiment was determined by liquid scintillation counting and adjusted if necessary.
Frozen hMC4R cell membranes were thawed and Dounce homogenized. Homogenates were resuspended in assay buffer to a concentration of 2 μg per well. […] The plates were incubated for 2 hours at room temperature. Assay samples were then rapidly filtered through Unifilter-96 GF/B PEI coated filter plates using a filter plate harvester (PerkinElmer) and rinsed with ice-cold wash buffer [25 mM (4-(2-hydroxyethyl)-1-piperazineethanesulfonic acid (HEPES), 1 mM MgCl2, 2.5 mM CaCl2, and 500 mM NaCl]. Filter plates were dried overnight at room temperature. Plates were then bottom-sealed prior to the addition of 50 μL/well Ultima Gold XR scintillation fluid (PerkinElmer 6013111). Plates were then top-sealed, incubated for 60 minutes at room temperature and then the amount of radioactivity present was determined by liquid scintillation counting on a Microbeta Trilux (PerkinElmer #2450-0060).
The raw data (expressed as counts per minute) were analyzed using ActivityBase (IDBS Data Management Software). […] Equilibrium dissociation constant for inhibitor of ligand and receptor interaction (Ki) values were then calculated from the IC50 values using the Cheng-Prusoff equation: Ki=IC50/(1+([L]/Kd)), where [L] is the concentration of the radioligand used in the experiment and Kd is the affinity of the radioligand (determined in separate saturation experiments).

[1] = target: human Melanocortin-4 receptor (MC4R) (Homo sapiens (Human), UniProt P32245); experiment: Functional in vitro MC4R antagonist potency assay (intracellular cAMP, HTRF, CHO cells); format: cell-based; conditions: cAMP after EC80 agonist stimulation (200 nM αMSH); Kb from IC50 by Leff-Dougall equation; read-out: Kb (nM) Antagonist geometric mean
Sequence of human Melanocortin-4 receptor (MC4R) (P32245 whole entry): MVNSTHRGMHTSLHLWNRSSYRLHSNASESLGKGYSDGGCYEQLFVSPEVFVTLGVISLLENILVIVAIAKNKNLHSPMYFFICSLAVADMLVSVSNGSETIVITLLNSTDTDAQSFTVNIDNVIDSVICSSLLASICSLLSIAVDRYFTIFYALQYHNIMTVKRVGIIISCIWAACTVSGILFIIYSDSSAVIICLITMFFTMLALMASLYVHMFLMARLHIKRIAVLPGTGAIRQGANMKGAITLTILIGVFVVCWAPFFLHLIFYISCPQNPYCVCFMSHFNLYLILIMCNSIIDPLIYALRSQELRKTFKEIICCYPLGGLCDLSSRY
Experimental: The functional in vitro antagonist potency for test compounds was determined by monitoring intracellular cyclic adenosine monophosphate (cAMP) levels in Chinese hamster ovary (CHO—) cells stably expressing the human Melanocortin-4 receptor (MC4R). Following agonist activation, human MC4R associates with the G-protein complex causing the Ga subunit to exchange bound GDP for GTP, followed by dissociation of the Gα-GTP complex. The activated Ga subunit can couple to downstream effectors to regulate the levels of second messengers or cAMP within the cell. Thereby, determination of intracellular cAMP levels allows for pharmacological characterization. Intracellular cAMP levels are quantitated using a homogenous assay utilizing the Homogeneous Time-Resolved Fluorescence (HTRF) technology from CisBio. The method is a competitive immunoassay between native cAMP produced by cells and the cAMP labelled with the acceptor dye, d2. The two entities then compete for binding to a monoclonal anti-cAMP antibody labeled with cryptate. The specific signal is inversely proportional to the concentration of cAMP in the cells.
Test compounds were solubilized to 30 mM in 100% dimethyl sulfoxide (DMSO) and stored. An 11-point dilution series using 1 in 3 162-fold serial dilutions was created in 100% DMSO with a top concentration of 800 μM. The serially diluted compound was spotted into a 384-well plate (Greiner, Cat No. 781280) at 40 nL/well with duplicate points at each concentration, and then diluted 1 in 1000 with 40 μL assay buffer containing HBSS, 20 mM HEPES (Invitrogen), 0.1% BSA, and 250 μM IBMX (Sigma Aldrich) to create an intermediate plate at 2× final assay concentration (FAC). The final compound concentration range in the assay was 400 nM to […], with a final DMSO concentration of 0.1%.
In-house generated CHO cells stably expressing the Gs-coupled human MC4R receptor were plated in 384-well assay plates (Corning, Cat No. 3570) in 50 μL/well of Ham's F-12 containing 10% heat inactivated FBS, 1× penicillin/streptomycin, 1 mM Glutamax (Invitrogen) at a density of 2,500 cells per well and incubated at 37° C. (95% O2: 5% CO2) overnight, with micro-clime lids (Labcyte, Cat No. LLS-0310). On day of assay, media was removed from the assay plate through gentle flicking and blotting plate on a paper towel and replaced with 5 μL of 2× antagonist compound in assay buffer (HBSS, 20 mM HEPES, 0.1% BSA, 250 μM IBMX) and 0.1% DMSO. Cells were incubated with compound for 30 minutes at 37° C. (95% O2: 5% CO2) before addition of 5 μL EC80 agonist stimulation (200 nM α-melanocyte stimulating hormone, αMSH, Bachem) and another 30-minute incubation at 37° C. (95% O2: 5% CO2). Intracellular cAMP levels were quantified as per Cisbio's protocol (5 μL of D2 and then 5 μL Cryptate, incubated for 1-2 hours at room temperature). Samples were measured on an Envision plate reader (PerkinElmer Life and Analytical Sciences; excitation, 320 nm; emission, 665 nm/620 nm).
Data were analyzed using the ratio of fluorescence intensity at 620 and 665 nm for each well, extrapolated from the cAMP standard curve to express data as nM cAMP for each well. Data expressed as nM cAMP were then normalized to control wells using Activity Base (IDBS). Zero percent effect (ZPE) was defined as nM of cAMP generated from EC80 agonist stimulation (200 nM αMSH). In the absence of an antagonist control compound, one hundred percent effect (HPE) was defined as nM of cAMP generated from assay buffer/vehicle only.

Sequence of hMC4R (P32245 whole entry): as above

| SMILES | Ki (hMC4R) [nM] | Kb [1] [nM] |
| --- | --- | --- |
| COc1cc([C@@H](C)C(=O)N2CC[C@H](Nc3ccc(-c4cn(C)c(C(F)F)n4)c(C)n3)C2)c(F)cn1 (single isomer, unassigned) [Example 38B] | 0.31 | 3.2 |
| COc1cc([C@@H](C)C(=O)N2CC[C@H](Nc3ccc(-c4nc(C(C)(F)F)n(C)n4)c(C)n3)C2)c(F)cn1 [Example 4, (2R)-1-[(3S)-3-({5-[5-(1,1-difluoroethyl)-1-methyl-1H-1,2,4-triazol-3-yl]-6-methylpyridin-2-yl}amino)pyrrolidin-1-yl]-2-(5-fluoro-2-methoxypyridin-4-yl)propan-1-one] | 1 | 9.6 |
| COc1cc(OC)cc([C@@H](C)C(=O)N2CC[C@H](Nc3ccc(-c4nc(C(F)(F)F)n(C)n4)c(C)n3)C2)c1 [Example 39, (2R)-2-(3,5-dimethoxyphenyl)-1-[(3S)-3-({6-methyl-5-[1-methyl-5-(trifluoromethyl)-1H-1,2,4-triazol-3-yl]pyridin-2-yl}amino)pyrrolidin-1-yl]propan-1-one] | 0.28 | 3.3 |
| COc1cc([C@@H](C)C(=O)N2CC[C@H](Nc3ccc(-c4ncccn4)c(C)n3)C2)c(C)cn1 (single isomer, unassigned) [Example 22B] | 2.1 | 8.1 |
| COc1cc([C@@H](C)C(=O)N2CC[C@H](Nc3ccc(-c4cn(C)c(C(C)(F)F)n4)c(C)n3)C2)c(F)cn1 (single isomer, unassigned) [Example 21B] | 0.48 | 2.6 |
| COc1cc([C@@H](C)C(=O)N2CC[C@H](Nc3ccc(-c4nc(C(F)F)n(C)n4)c(C)n3)C2)c(Cl)cn1 (single isomer, unassigned) [Example 24B] | 0.49 | 0.96 |
| Cc1nc(N[C@H]2CCN(C(=O)Cc3ccc(F)cc3)C2(C)C)ccc1-c1cn(C)cn1 [Example 3B, 1-[(3S)-2,2-dimethyl-3-{[6-methyl-5-(1-methyl-1H-imidazol-4-yl)pyridin-2-yl]amino}pyrrolidin-1-yl]-2-(4-fluorophenyl)ethan-1-one] | 4.2 | 33 |
| COc1cccc([C@@H](C)C(=O)N2CC[C@H](Nc3ccc(-c4cn(C)c(C(C)(F)F)n4)c(C)n3)C2)c1 (single isomer, unassigned) [Example 14B] | 0.45 | 14 |
| COc1cc([C@@H](C)C(=O)N2CC[C@H](Nc3ccc(-c4cn(C)c(C(F)F)n4)c(C)n3)C2)cc(OC)n1 (single isomer, unassigned) [Example 12A] | 0.31 | 1.9 |
| COc1cc([C@@H](C)C(=O)N2CC[C@H](Nc3ccc(-c4nc(C(F)(F)F)n(C)n4)c(C)n3)C2)c(F)cn1 [Example 2, (2R)-2-(5-fluoro-2-methoxypyridin-4-yl)-1-[(3S)-3-({6-methyl-5-[1-methyl-5-(trifluoromethyl)-1H-1,2,4-triazol-3-yl]pyridin-2-yl}amino)pyrrolidin-1-yl]propan-1-one] | 1.2 | 7.2 |
| COc1cc([C@@H](C)C(=O)N2CC[C@H](Nc3ccc(-c4nc(C(C)(F)F)n(C)n4)c(C)n3)C2)c(Cl)cn1 (single isomer, unassigned) [Example 37B] | 0.53 | 4.1 |
| COc1cc([C@@H](C)C(=O)N2CC[C@H](Nc3ccc(-c4nc5ccccn5n4)c(C)n3)C2)c(Cl)cn1 [Example 18, (2R)-2-(5-chloro-2-methoxypyridin-4-yl)-1-[(3S)-3-{[6-methyl-5-([1,2,4]triazolo[1,5-a]pyridin-2-yl)pyridin-2-yl]amino}pyrrolidin-1-yl]propan-1-one] | 0.51 | 2.1 |
| COc1cc([C@@H](C)C(=O)N2CC[C@H](Nc3ccc(-c4nnn(C)n4)c(C)n3)C2)c(C)cn1 (single isomer, unassigned) [Example 26B] | 2.1 | 5.6 |
| COc1cc([C@@H](C)C(=O)N2CC[C@H](Nc3ccc(-c4nc(C(F)F)n(C)n4)c(C)n3)C2)ccn1 (single isomer, unassigned) [Example 33B] | 1.1 | 3.3 |
| COc1cc([C@@H](C)C(=O)N2CC[C@H](Nc3ccc(-c4nc(C(F)F)n(C)n4)c(C)n3)C2)nc(C)n1 (single isomer, unassigned) [Example 41B] | 2 | 3.6 |
| COc1cc([C@@H](C)C(=O)N2CC[C@H](Nc3ccc(-c4nnn(C)n4)c(C)n3)C2)c(Cl)cn1 [Example 1, (2R)-2-(5-chloro-2-methoxypyridin-4-yl)-1-[(3S)-3-{[6-methyl-5-(2-methyl-2H-tetrazol-5-yl)pyridin-2-yl]amino}pyrrolidin-1-yl]propan-1-one] | 0.88 | 5.1 |
| COc1cc([C@@H](C)C(=O)N2CC[C@H](Nc3ccc(-c4ncccn4)c(C)n3)C2)c(Cl)cn1 [Example 6, (2R)-2-(5-chloro-2-methoxypyridin-4-yl)-1-[(3S)-3-{[6-methyl-5-(pyrimidin-2-yl)pyridin-2-yl]amino}pyrrolidin-1-yl]propan-1-one] | 1.1 | 2.2 |
| COc1cc(OC(F)F)cc([C@@H](C)C(=O)N2CC[C@H](Nc3ccc(-c4ncccn4)c(C)n3)C2)c1 (single isomer, unassigned) [Example 44A] | > 220 | > 97 |
| COc1cc([C@@H](C)C(=O)N2CC[C@H](Nc3ccc(-c4nc(C(F)(F)F)n(C)n4)c(C)n3)C2)c(Cl)cn1 (single isomer, unassigned) [Example 25B] | 0.49 | 1.8 |
